Assay results reported in ChEMBL document CHEMBL5579899, “Discovery and In Vivo Exploration of 1,3,4-Oxadiazole and α-Fluoroacrylate Containing IL-17 Inhibitors” (J Med Chem, 2024).
In brackets after ≈: the same amount, converted by molar mass.

What was measured:
[1] = Testicular toxicity in dog >=75 mg/kg administration for 2 weeks; type: organism-based, Canis lupus familiaris; conditions: in vivo, 336 h
[2] = Inhibition of CXCL1 production in IL-17A stimulated rat IEC-6 cells; type: functional
[3] = Inhibition of biotinylated human IL-17A/AF647-labeled human IL-17RA protein-protein interaction preincubated for 30 mins with compound followed by addition of AF647-labeled human IL-17RA incubated for 90 min by TR-FRET assay
[4] = AUClast in Sprague-Dawley rat at 3 mg/kg,po measured upto 24 hrs by LC-MS/MS analysis; type: ADME, organism-based; conditions: in vivo
[5] = test system: Rattus norvegicus; assay: Antiarthritic activity in antigen-induced arthritis Lewis rat model assessed as reduction in knee swelling at 1 mg/kg,po bid administrated for 4 days; type: functional; parameters: scale not given: the % may be the effect or the level left; conditions: time 4 day
[6] = Plasma protein binding in mouse assessed as unbound fraction; type: ADME, cell-free
[7] = molecular target: Bile salt export pump (Homo sapiens, UniProt O95342); assay: Inhibition of BSEP (unknown origin); type: toxicity
[8] = Volume of distribution at steady state in Sprague-Dawley rat at 1 mg/kg,iv or 3 mg/kg,po measured upto 24 hrs by LC-MS/MS analysis; type: ADME, organism-based; conditions: in vivo, read-out: Vdss
[9] = Plasma protein binding in rat assessed as unbound fraction; type: ADME, cell-free
[10] = Toxicity in dog at >=200 mg/kg,administrated for 2 weeks; type: organism-based, Canis lupus familiaris; conditions: in vivo, 336 h
[11] = Inhibition of IL-6 production in IL-17/TNF-alpha stimulated human NHDF cells incubated for 24 hrs by ELISA; type: functional, cell-based
[12] = Toxicity in rat assessed as maximal tolerated dose administrated for 2 weeks; conditions: in vivo
[13] = GSH reactivity in aqueous buffer at pH 7.4 assessed as GSH-adduct formation by measuring half life; type: physicochemical
[14] = Half life in Beagle dog at 0.1 mg/kg,iv or 0.3 mg/kg,po measured upto 24 hrs by LC-MS/MS analysis; type: ADME, organism-based, Canis lupus familiaris; conditions: in vivo
[15] = Half life in C57BL/6 mouse at 1 mg/kg,iv or 3 mg/kg,po measured upto 24 hrs by LC-MS/MS analysis; type: ADME, organism-based; conditions: in vivo
[16] = Equilibrium solubility of compound […] at pH 6.8 by high-throughput analysis; type: physicochemical
[17] = Half life in Sprague-Dawley rat at 1 mg/kg,iv or 3 mg/kg,po measured upto 24 hrs by LC-MS/MS analysis; type: ADME, organism-based; conditions: in vivo
[18] = Toxicity in dog assessed as increase in serum liver enzyme at 200 mg/kg administrated for 2 weeks; type: organism-based, Canis lupus familiaris; conditions: in vivo, 336 h
[19] = Oral bioavailability in Beagle dog at 0.3 mg/kg measured upto 24 hrs by LC-MS/MS analysis; type: ADME, organism-based, Canis lupus familiaris; conditions: in vivo
[20] = Volume of distribution at steady state in C57BL/6 mouse at 1 mg/kg,iv or 3 mg/kg,po measured upto 24 hrs by LC-MS/MS analysis; type: ADME, organism-based; conditions: in vivo, read-out: Vdss
[21] = Oral bioavailability in Sprague-Dawley rat at 3 mg/kg measured upto 24 hrs by LC-MS/MS analysis; type: ADME, organism-based; conditions: in vivo, po, 3 mg/kg, 24 h
[22] = Inhibition of CXCL1 production in IL-17A stimulated rat IEC-6 cells assessed as fold change in inhibition of CXCL1 release; type: functional
[23] = Metabolic stability in human hepatocyte assessed as clearance measured per million cells; type: ADME, cell-based; conditions: hepatocytes
[24] = molecular target: T1, Muscarinic acetylcholine receptor M2 (Homo sapiens, UniProt P08172); assay: Inhibition of muscarinic M2 receptor (unknown origin); type: toxicity
T1 sequence (P08172 whole entry): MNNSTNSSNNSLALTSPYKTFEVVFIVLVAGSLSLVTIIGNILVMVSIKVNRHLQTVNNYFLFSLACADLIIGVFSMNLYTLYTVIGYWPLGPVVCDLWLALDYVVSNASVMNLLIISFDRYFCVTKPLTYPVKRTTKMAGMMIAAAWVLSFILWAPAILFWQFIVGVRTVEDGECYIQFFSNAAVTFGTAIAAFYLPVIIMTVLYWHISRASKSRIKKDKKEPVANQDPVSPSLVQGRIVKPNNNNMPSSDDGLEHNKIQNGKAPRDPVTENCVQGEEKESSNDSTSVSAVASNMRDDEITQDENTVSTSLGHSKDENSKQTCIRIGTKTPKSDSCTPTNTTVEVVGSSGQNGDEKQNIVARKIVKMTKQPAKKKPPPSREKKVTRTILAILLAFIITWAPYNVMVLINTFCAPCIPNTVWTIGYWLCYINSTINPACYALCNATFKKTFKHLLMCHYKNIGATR

[25] = Toxicity in dog assessed as morphological change in liver at 200 mg/kg administrated for 2 weeks; type: organism-based, Canis lupus familiaris; conditions: in vivo, 336 h
[26] = Plasma protein binding in dog assessed as unbound fraction; type: ADME, cell-free, Canis lupus familiaris
[27] = AUClast in Beagle dog at 0.3 mg/kg,po measured upto 24 hrs by LC-MS/MS analysis; type: ADME, organism-based, Canis lupus familiaris; conditions: in vivo
[28] = AUClast in C57BL/6 mouse at 3 mg/kg,po measured upto 24 hrs by LC-MS/MS analysis; type: ADME, organism-based; conditions: in vivo
[29] = Oral bioavailability in C57BL/6 mouse at 3 mg/kg measured upto 24 hrs by LC-MS/MS analysis; type: ADME, organism-based; conditions: in vivo
[30] = test system: Rattus norvegicus; assay: Antiarthritic activity in antigen-induced arthritis Lewis rat model assessed as reduction in knee swelling at po bid administrated for 4 days; type: functional, organism-based; conditions: time 4.0 day
[31] = Metabolic stability in dog hepatocyte assessed as clearance measured per million cells; type: ADME, cell-based, Canis lupus familiaris; conditions: hepatocytes
[32] = molecular target: T2, Solute carrier organic anion transporter family member 1B1 (Homo sapiens, UniProt Q9Y6L6); assay: Inhibition of OATP1B1 (unknown origin); type: toxicity
T2 sequence (Q9Y6L6 whole entry): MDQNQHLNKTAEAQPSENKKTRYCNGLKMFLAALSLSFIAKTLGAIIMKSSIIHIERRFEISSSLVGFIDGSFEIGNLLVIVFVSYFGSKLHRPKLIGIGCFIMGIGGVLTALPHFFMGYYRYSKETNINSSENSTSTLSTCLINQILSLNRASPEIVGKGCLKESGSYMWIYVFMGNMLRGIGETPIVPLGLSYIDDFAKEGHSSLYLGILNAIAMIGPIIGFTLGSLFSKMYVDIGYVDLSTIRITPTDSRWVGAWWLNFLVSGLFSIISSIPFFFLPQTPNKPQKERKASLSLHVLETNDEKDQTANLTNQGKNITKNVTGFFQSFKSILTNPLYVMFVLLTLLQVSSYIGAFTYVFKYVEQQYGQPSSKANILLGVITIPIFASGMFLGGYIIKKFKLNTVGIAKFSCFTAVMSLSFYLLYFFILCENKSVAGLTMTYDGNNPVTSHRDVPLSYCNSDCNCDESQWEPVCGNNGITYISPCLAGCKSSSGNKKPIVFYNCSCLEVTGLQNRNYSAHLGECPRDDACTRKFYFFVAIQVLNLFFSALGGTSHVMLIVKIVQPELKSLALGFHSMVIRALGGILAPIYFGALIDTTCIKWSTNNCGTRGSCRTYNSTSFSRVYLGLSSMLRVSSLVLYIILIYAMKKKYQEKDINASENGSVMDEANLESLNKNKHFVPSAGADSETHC

[33] = AUC in Sprague-Dawley rat at 3 mg/kg,po measured upto 24 hrs by LC-MS/MS analysis; type: ADME, organism-based; conditions: in vivo, po, 3 mg/kg, 24 h
[34] = Apparent permeability coefficient of the compound across apical to basolateral side in dog MDCK cells by high-throughput analysis; type: ADME, cell-based, Canis lupus familiaris
[35] = Plasma protein binding in human assessed as unbound fraction; type: ADME, cell-free
[36] = Metabolic stability in mouse liver microsomes assessed as intrinsic clearance; type: ADME, Microsome; conditions: read-out: CLH
[37] = Toxicity in dog assessed as maximal tolerated dose administrated for 2 weeks; parameters: species or system Canis lupus familiaris; conditions: in vivo
[38] = Metabolic stability in rat hepatocyte assessed as clearance measured per million cells; type: ADME, cell-based; conditions: hepatocytes
[39] = Metabolic stability in dog liver microsomes assessed as intrinsic clearance; type: ADME, Canis lupus familiaris, Microsome; conditions: read-out: CLH
[40] = test system: Rattus norvegicus; assay: Antiarthritic activity in antigen-induced arthritis Lewis rat model assessed as reduction in knee swelling at 30 mg/kg,po bid administrated for 4 days; type: functional; parameters: scale not given: the % may be the effect or the level left; conditions: time 4 day
[41] = Volume of distribution at steady state in Beagle dog at 0.1 mg/kg,iv or 0.3 mg/kg,po measured upto 24 hrs by LC-MS/MS analysis; type: ADME, organism-based, Canis lupus familiaris; conditions: in vivo, read-out: Vdss
[42] = Metabolic stability in human liver microsomes assessed as intrinsic clearance; type: ADME, Microsome; conditions: read-out: CLH
[43] = Lipophilicity, logD of compound at pH 7.4; type: physicochemical; conditions: buffer
[44] = Metabolic stability in rat liver microsomes assessed as intrinsic clearance; type: ADME, Microsome; conditions: read-out: CLH
[45] = Testicular toxicity in rat at >=100 mg/kg administration for 2 weeks; type: organism-based; conditions: in vivo, 336 h

Bile salt export pump, sequence (O95342 whole entry): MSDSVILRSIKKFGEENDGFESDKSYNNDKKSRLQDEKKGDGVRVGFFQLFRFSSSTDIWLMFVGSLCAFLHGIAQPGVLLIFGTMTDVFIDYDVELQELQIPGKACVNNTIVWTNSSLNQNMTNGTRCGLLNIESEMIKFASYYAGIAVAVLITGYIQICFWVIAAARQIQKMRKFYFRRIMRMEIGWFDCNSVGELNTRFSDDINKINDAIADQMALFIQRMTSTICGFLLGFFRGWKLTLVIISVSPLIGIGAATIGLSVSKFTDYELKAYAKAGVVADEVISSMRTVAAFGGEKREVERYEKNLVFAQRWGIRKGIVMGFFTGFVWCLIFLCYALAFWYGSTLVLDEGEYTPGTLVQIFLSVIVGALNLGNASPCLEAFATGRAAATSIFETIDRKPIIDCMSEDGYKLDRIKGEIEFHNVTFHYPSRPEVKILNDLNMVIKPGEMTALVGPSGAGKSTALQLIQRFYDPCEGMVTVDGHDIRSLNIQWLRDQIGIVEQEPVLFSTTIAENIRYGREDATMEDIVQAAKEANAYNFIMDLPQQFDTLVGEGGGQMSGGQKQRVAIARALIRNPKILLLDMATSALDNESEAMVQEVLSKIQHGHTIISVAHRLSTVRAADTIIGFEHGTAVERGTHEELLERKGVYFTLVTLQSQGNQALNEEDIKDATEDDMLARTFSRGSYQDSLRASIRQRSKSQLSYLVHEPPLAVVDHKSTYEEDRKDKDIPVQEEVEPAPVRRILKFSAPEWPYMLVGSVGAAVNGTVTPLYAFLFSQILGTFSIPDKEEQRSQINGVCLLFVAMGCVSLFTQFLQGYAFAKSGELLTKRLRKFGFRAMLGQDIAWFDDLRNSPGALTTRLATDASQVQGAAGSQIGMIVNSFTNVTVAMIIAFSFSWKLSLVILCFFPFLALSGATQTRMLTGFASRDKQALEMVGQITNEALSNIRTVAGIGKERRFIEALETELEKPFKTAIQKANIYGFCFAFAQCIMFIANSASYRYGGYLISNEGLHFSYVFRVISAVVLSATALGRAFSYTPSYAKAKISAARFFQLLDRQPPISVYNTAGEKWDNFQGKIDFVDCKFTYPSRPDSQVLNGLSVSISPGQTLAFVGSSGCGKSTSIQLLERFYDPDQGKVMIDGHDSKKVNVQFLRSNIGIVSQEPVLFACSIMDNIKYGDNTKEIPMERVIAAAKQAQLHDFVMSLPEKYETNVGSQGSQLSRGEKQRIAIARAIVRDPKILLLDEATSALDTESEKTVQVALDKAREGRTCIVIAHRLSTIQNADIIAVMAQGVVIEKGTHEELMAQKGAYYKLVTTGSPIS

COC[C@H](c1cnn2cc([C@@H](NC(=O)/C(F)=C\C3CC3)C3CCC(F)(F)CC3)nc2c1)N1C[C@@H](C(F)(F)F)NC1=O
Activity [1]: Toxic
IC90 [2]: 45 nM
IC50 [3]: 13 nM
AUC(0-t) at 24 h [4]: 1.58 µM·h
Activity [5]: 60%
fraction unbound [6]: 0.048
IC50 [7]: 19000 nM
Vd [8]: 4.4 L/kg
fraction unbound [9]: 0.075
Activity [10]: Non-Toxic
IC50 ([11]; 24 h): 4 nM
IC90 ([11]; time 24 hrs): 37 nM
MTD at 336 h [12]: 1000 mg/kg
t1/2 [13]: > 8 h
half-life [14]: 8.3 h
half-life [15]: 2 h
solubility [16]: 150 µM (≈ 88.3 µg/mL)
half-life [17]: 2.6 h
Activity [18]: Toxic
F [19]: 94%
Vd [20]: 3 L/kg
F [21]: 106%
fold change (FC) [22]: 9
CLH [23]: 58 µL
IC50 [24]: 14000 nM
Activity [25]: Toxic
fraction unbound [26]: 0.062
AUClast [27]: 4.2 µM·h
AUClast [28]: 0.53 µM·h
F [29]: 41%
Activity [30]: Dose-Dependent Effect
CLH [31]: 5.1 µL
IC50 [32]: 11000 nM
AUC [33]: 0.024 µM·h
Papp A→B [34]: 26 ×10⁻⁶ cm/s
fraction unbound [35]: 0.094
microsomal CLint [36]: 25 µL/min/mg
MTD at 336 h [37]: 75 mg/kg
CLH [38]: 4.2 µL
microsomal CLint [39]: 18 µL/min/mg
Activity [40]: 97%
Vd [41]: 3.7 L/kg
microsomal CLint [42]: 58 µL/min/mg
logD [43]: 3.8
microsomal CLint [44]: 38 µL/min/mg
Activity [45]: Toxic
